This is an account of results in ChEMBL document CHEMBL5385933, “Preparation and Preliminary Structure-Activity Relationship Studies of Schwarzinicine A Analogs as Vasorelaxant Agents” (J Nat Prod, 2024).

In general, Emax refers to the greatest response seen or fitted, relative to the assay's reference. One may read the EC50 as the concentration at which the effect is half-maximal.

For assay [1], the system named is Aorta. In words: Vasorelaxant activity in Sprague-Dawley rat aortic rings assessed as reduction in phenylephrine-induced contractions by measuring maximum efficacy by organ bath assay relative to control. Type of assay: functional.
The test system of assay [2] is Aorta. As to the kind of experiment: Vasorelaxant activity in Sprague-Dawley rat aortic rings assessed as reduction in phenylephrine-induced contractions by organ bath assay. Type of assay: functional, tissue-based.

Regarding `CCCC(Cc1ccccc1)NCCCCc1ccccc1` (centres undefined), the Emax in the assay with Aorta [1] amounted to 127%. Moreover, the EC50 with Aorta [2] was found to be 2740 nM.
The like results for `c1ccc(CCNC2CCc3ccccc3C2)cc1` (centres undefined) were, in that order, 119% and 500 nM.
With `c1ccc(CCNC2Cc3ccccc3C2)cc1`, the Emax in the assay with Aorta [1] came to 113%. For the same compound, the EC50 in the assay on Aorta [2] stood at 200 nM.
For `CCCC(Cc1ccccc1)NCCN1CCOCC1` (centres undefined), in that order: 89.8% and 2740 nM.
For `COc1ccc(CCNC(C)Cc2ccc(OC)c(OC)c2)cc1OC` (centres undefined), in that order: 104% and 2890 nM.
As for `COc1ccc(CCNC(Cc2ccccc2)Cc2ccccc2)cc1OC`, the Emax in the assay on Aorta [1] was 115%. The EC50 in the assay with Aorta [2] came out at 1860 nM.
For `c1ccc(CCNC(CCc2ccccc2)Cc2ccccc2)cc1` (centres undefined), in that order: 116% and 2300 nM.
`CCCC(Cc1csc2ccccc12)NCCc1ccccc1` (centres undefined): in the assay with Aorta [1], the Emax came out at 112%. In the assay with Aorta [2], the EC50 is 370 nM.
The like results for `CCCC(CCCCc1ccccc1)NCCc1ccccc1` (centres undefined) were, in that order, 121% and 2020 nM.
The like results for `CCC(CCc1ccco1)NCCN1CCCCC1` (centres undefined) were, in that order, 97.8% and 420 nM.
Regarding `CCCC(Cc1ccccc1)NC1Cc2ccccc2C1` (centres undefined), in the assay with Aorta [1], the Emax stood at 114%. For the same compound, in the assay with Aorta [2], the EC50 was found to be 350 nM.
The like results for `CCCC(Cc1ccccc1)NC1CCCC1` (centres undefined) were, in that order, 116% and 3090 nM.
The like results for `CCCC(Cc1ccccc1)NCCc1c[nH]cn1` (centres undefined) were, in that order, 122% and 1370 nM.
On to `CCCC(Cc1ccccc1)NC1CC2CCC1C2` (centres undefined), for which the Emax in the assay with Aorta [1] worked out at 106%. For the same compound, in the assay with Aorta [2], the EC50 came out at 480 nM.
`CCCC(Cc1ccc(Cl)cc1)NCCc1ccccc1` (centres undefined): the Emax with Aorta [1] stood at 114%. Further, in the assay with Aorta [2], the EC50 was determined as 1950 nM.
Regarding `CCCC(CC1CCCCC1)NCCc1ccccc1` (centres undefined), the Emax in the assay on Aorta [1] came to 114%. For the same compound, the EC50 in the assay on Aorta [2] turned out to be 1840 nM.
`CCCC(Cc1ccccc1)NCCc1ccccc1` (centres undefined): the Emax in the assay with Aorta [1] worked out at 113%. In the assay with Aorta [2], the EC50 came to 3060 nM.
For `CCCC(Cc1ccc(C)cc1)NCCc1ccccc1` (centres undefined), in that order: 120% and 2640 nM.
The like results for `Fc1ccc(CCNC(CCc2ccccc2)Cc2ccc(Cl)cc2)cc1` (centres undefined) were, in that order, 92.2% and 650 nM.
On to `CCCC(Cc1cccs1)NCCc1ccccc1` (centres undefined), for which the Emax in the assay with Aorta [1] was found to be 110%. The EC50 in the assay with Aorta [2] worked out at 410 nM.
The like results for `CCC(CCCCc1ccccc1)NCCc1ccccc1` (centres undefined) were, in that order, 125% and 3360 nM.
`CCC(CCc1ccccc1)NCCc1ccccc1` (centres undefined): the Emax in the assay on Aorta [1] was 11.5%. Moreover, in the assay on Aorta [2], the EC50 was 1240 nM.
The like results for `CCCC(CC1CC1)NCCc1ccccc1` (centres undefined) were, in that order, 116% and 1510 nM.
The like results for `CCCC(Cc1ccccc1)NCCN1CCCCC1` (centres undefined) were, in that order, 110% and 130 nM.
On to `CCCC(Cc1ccccc1)NCCC1=CCCCC1` (centres undefined), for which the Emax in the assay on Aorta [1] is 117%. Moreover, the EC50 in the assay on Aorta [2] was 2410 nM.
The like results for `CN(CCc1ccccc1)C(CCc1ccccc1)Cc1ccccc1` (centres undefined) were, in that order, 93.5% and 40 nM.
On to `CCCC(CC1CCCCC1)NCCN1CCCCC1` (centres undefined), for which the Emax with Aorta [1] came out at 88.4%. The EC50 in the assay on Aorta [2] was 220 nM.
The like results for `CCN(CCc1ccccc1)C(CCc1ccccc1)Cc1ccccc1` (centres undefined) were, in that order, 85% and 1210 nM.
Take `CCCC(Cc1ccccc1)NCCC#N` (centres undefined): the Emax in the assay with Aorta [1] is 89.5%. Moreover, the EC50 in the assay with Aorta [2] stood at 1430 nM.
For `CCCC(Cc1ccccc1)NC1CC1` (centres undefined), in that order: 114% and 2250 nM.
In the case of `CCCC(Cc1ccccc1)NCCc1ccc([N+](=O)[O-])cc1` (centres undefined), the maximal effect (Emax) in the assay with Aorta [1] amounted to 119%. The EC50 with Aorta [2] turned out to be 1730 nM.
On to `CCC(CCc1ccco1)NCCc1ccccc1` (centres undefined), for which the Emax with Aorta [1] was found to be 122%. Moreover, the EC50 with Aorta [2] was determined as 180 nM.
With `C[N+](C)(CCc1ccccc1)C(CCc1ccccc1)Cc1ccccc1` (centres undefined), the Emax in the assay on Aorta [1] was found to be 136%. Moreover, in the assay with Aorta [2], the EC50 was 1970 nM.
The like results for `c1ccc2c(c1)CCC(NC1Cc3ccccc3C1)C2` (centres undefined) were, in that order, 122% and 1320 nM.
For the compound `CCC(CCc1cccs1)NCCc1ccccc1` (centres undefined), the Emax in the assay with Aorta [1] stood at 120%. Besides, the EC50 in the assay with Aorta [2] was found to be 190 nM.
Consider `c1ccc(CCC(Cc2ccccc2)N(CCc2ccccc2)CCc2ccccc2)cc1` (centres undefined), for which the Emax with Aorta [1] came to 68.9%. Besides, the EC50 with Aorta [2] stood at 1390 nM.
As to `CCCC(CC1CCCCC1)NCCC1CCCCC1` (centres undefined), the Emax in the assay with Aorta [1] was 83.6%. Moreover, in the assay on Aorta [2], the EC50 was determined as 320 nM.
For the compound `CCCCCCCC(CCC)NCCc1ccccc1` (centres undefined), in the assay with Aorta [1], the Emax is 89.7%. The concentration giving a half-maximal response (EC50) with Aorta [2] is 1050 nM.
The like results for `CCCC(Cc1ccccc1)NCCc1ccc(F)cc1` (centres undefined) were, in that order, 120% and 3830 nM.
For `CCCC(Cc1ccccc1)NCCN1CCNCC1` (centres undefined), in that order: 107% and 1040 nM.
For `CCCC(Cc1ccc2c(c1)OCO2)NCCc1ccccc1` (centres undefined), in that order: 113% and 1060 nM.
As to `CCC(CCc1ccco1)NCCC1CCCCC1` (centres undefined), the Emax in the assay on Aorta [1] stood at 106%. For the same compound, the concentration giving a half-maximal response (EC50) in the assay with Aorta [2] is 2120 nM.
For `CCCNC(CCc1ccccc1)Cc1ccccc1` (centres undefined), in that order: 121% and 3830 nM.
Consider `CCCC(Cc1ccc(C)cc1)NCCc1ccc(F)cc1` (centres undefined), for which the Emax in the assay with Aorta [1] was determined as 118%. In the assay on Aorta [2], the EC50 came out at 1230 nM.
Turning to `CCCC(Cc1ccc(Cl)cc1)NCCc1ccc(F)cc1` (centres undefined), in the assay with Aorta [1], the Emax is 99.1%. Further, the EC50 with Aorta [2] turned out to be 1090 nM.
For `CCCC(Cc1ccc2ccccc2c1)NCCc1ccccc1` (centres undefined), in that order: 115% and 1600 nM.
In the case of `CCCC(Cc1ccccc1)NCCc1c[nH]c2ccccc12` (centres undefined), the Emax in the assay with Aorta [1] amounted to 114%. Also, the EC50 in the assay on Aorta [2] amounted to 440 nM.
As to `CCC(Cc1ccccc1)NCCc1ccccc1` (centres undefined), in the assay on Aorta [1], the Emax was determined as 120%. The EC50 with Aorta [2] was determined as 1120 nM.
For `CCCC(Cc1ccccc1)NCCc1ccccn1` (centres undefined), in that order: 114% and 1130 nM.
For `CCC(CCc1ccc(C#N)cc1)NCCc1ccccc1` (centres undefined), in that order: 125% and 1960 nM.
The like results for `CCCC(Cc1ccccc1)NCCc1ccc(OC)cc1` (centres undefined) were, in that order, 114% and 1280 nM.
As for `c1ccc(CCC(Cc2ccccc2)N(CCc2ccccc2)CC2CC2)cc1` (centres undefined), in the assay with Aorta [1], the Emax stood at 75.4%. The EC50 in the assay on Aorta [2] is 140 nM.
For `CCCC(CC1CCCCC1)NCCC1=CCCCC1` (centres undefined), in that order: 84.7% and 1000 nM.
For `COc1ccc(CCC(Cc2ccc(OC)c(OC)c2)NCCc2ccc(OC)c(OC)c2)cc1` (centres undefined), in that order: 122% and 2990 nM.
For `CC(=O)N(CCc1ccccc1)C(CCc1ccccc1)Cc1ccccc1` (centres undefined), in that order: 82.9% and 20300 nM.
As to `CCCC(Cc1ccccc1)NCCc1ccc(O)cc1` (centres undefined), the Emax with Aorta [1] came out at 111%. For the same compound, the EC50 with Aorta [2] was 49 nM.
As for `CCCC(Cc1ccccc1)NCCc1cccs1` (centres undefined), in the assay on Aorta [1], the Emax is 134%. For the same compound, in the assay with Aorta [2], the EC50 came out at 3500 nM.
